Source: BindingDB's records for doi:10.1021/acs.jmedchem.6b00788 (University of Pittsburgh, 2017)

Assay: Inhibition of TNFalpha-PLAP (unknown origin)

An IC50 of 36 nM was found for `COc1cc(O)c2c(c1)/C=C/C[C@H](O)[C@H](O)C(=O)/C(F)=C\C[C@H](C)OC2=O` in this work.
An IC50 of over 10000 nM was found for `COc1cc(O)c2c(c1)/C=C/C[C@H](O)[C@H](O)C(=O)/C=C(/C)C[C@H](C)OC2=O` in this work.
